For 6 compounds, GI50 results are on record in patent publication US12162858B2, “Quinoline derivatives as inhibitors of AXL/MER RTK and CSF1R” (QURIENT CO., LTD., priority 2018, dated 2024).

Holding throughout (type): cell-based
The target in one assay is CSF1R (Ba/F3 cells) (Homo sapiens, UniProt P07333). The experiment in a line: BaF3 viability assay, CSF1R-dependent cells. To be noted: read-out: Cellular CSF1R activity by Ba/F3 assay (IC50). An excerpt: (§1) In this system, IL-3-dependent Ba/F3 cells are modified to express an activated recombinant kinase (in the present case Axl, Mer and CSF1R). Following removal of IL-3, the modified cells are dependent on the activity of the recombinant kinase for survival and proliferation. Inhibition of such kinase(s) through test compounds reduces survival and proliferation of the cells.
Chain of CSF1R (Ba/F3 cells) (P07333 whole entry, change not shown): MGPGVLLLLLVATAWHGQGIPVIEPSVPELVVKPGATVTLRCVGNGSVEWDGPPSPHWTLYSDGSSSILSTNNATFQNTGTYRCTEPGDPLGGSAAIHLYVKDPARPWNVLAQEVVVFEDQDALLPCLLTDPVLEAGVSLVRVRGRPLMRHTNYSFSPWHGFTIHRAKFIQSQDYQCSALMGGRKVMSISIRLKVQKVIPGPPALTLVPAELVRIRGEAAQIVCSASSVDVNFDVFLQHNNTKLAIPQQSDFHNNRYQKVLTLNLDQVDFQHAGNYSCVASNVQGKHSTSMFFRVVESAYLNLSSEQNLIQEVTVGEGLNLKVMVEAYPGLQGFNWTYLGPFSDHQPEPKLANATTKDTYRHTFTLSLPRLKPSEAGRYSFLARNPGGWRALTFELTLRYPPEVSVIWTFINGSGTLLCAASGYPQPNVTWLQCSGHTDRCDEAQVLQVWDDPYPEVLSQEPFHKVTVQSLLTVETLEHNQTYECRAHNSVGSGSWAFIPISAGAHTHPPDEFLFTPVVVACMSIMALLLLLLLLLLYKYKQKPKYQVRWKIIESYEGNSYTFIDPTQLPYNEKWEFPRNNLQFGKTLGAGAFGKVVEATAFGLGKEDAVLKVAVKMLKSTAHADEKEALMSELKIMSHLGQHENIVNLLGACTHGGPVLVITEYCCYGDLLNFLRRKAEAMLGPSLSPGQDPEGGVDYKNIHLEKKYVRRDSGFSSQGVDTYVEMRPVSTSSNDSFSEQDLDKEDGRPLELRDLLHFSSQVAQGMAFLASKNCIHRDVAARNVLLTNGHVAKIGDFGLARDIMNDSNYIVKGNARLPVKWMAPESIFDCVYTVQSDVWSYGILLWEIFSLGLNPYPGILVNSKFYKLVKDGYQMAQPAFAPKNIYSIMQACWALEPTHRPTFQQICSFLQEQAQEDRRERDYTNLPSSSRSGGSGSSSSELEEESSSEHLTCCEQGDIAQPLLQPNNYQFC
(§2) Cell lines were maintained in growth media (GM) consisting of RPMI 1640 supplemented with 10% FBS. Cells in logarithmic-phase growth were harvested and 5,000 cells were distributed into each well of a 384-well plate in 50 μl GM. Parental cells (or experimental assays where specified) were further supplemented with 2 ng/ml IL-3 to support cell growth and survival. Fifty nanoliters of the indicated reference standard or experimental compound were added to appropriate wells (in duplicate) and the cells were cultured for 48 h at 37° C./5% CO2. Viability was determined by adding 10 μl Cell Titer Glo and measuring luminescence, which is reported as relative light units (RLU) measured in counts per second. The following calculations and formulas are used for data analysis using GraphPad Prism software: The curve fitting was made using the Dose response curves-Inhibition.

The next assay has as its target T1, Mer (Ba/F3 cells) (Homo sapiens, UniProt Q12866).
T1 sequence (Q12866 1-999): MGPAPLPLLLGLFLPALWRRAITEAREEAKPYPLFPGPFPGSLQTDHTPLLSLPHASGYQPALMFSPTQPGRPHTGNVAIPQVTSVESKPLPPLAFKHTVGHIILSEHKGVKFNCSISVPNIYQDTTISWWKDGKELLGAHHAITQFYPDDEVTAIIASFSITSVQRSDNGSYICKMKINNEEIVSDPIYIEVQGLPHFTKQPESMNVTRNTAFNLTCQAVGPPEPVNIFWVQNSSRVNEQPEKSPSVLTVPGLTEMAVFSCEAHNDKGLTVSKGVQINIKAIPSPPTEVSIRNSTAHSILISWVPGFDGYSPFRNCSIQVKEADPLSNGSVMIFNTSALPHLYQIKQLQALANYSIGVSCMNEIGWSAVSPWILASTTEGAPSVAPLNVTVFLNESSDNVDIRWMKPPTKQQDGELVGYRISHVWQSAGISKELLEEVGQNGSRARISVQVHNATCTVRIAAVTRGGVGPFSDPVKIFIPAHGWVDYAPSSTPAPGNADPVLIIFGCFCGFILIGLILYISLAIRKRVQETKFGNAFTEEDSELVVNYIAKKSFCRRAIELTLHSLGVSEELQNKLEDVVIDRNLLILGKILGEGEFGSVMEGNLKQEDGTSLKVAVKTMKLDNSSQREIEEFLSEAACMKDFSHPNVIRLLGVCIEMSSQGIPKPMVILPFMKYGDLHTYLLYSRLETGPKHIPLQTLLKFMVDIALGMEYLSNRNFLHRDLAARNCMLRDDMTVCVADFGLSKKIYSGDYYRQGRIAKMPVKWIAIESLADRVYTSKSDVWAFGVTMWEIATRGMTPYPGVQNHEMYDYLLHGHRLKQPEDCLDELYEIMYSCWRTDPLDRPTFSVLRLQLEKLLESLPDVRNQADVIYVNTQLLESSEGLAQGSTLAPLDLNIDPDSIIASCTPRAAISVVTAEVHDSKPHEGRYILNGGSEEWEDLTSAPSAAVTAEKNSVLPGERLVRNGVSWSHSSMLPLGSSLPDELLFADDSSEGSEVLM
Description: BaF3 viability assay, Mer-dependent cells. The conditions noted are these: read-out: Cellular Mer activity by Ba/F3 assay (IC50).
Description: as §1, §2

The target in another assay is T2, Axl (Ba/F3 cells) (Homo sapiens, UniProt P30530).
T2 sequence (P30530 1-894): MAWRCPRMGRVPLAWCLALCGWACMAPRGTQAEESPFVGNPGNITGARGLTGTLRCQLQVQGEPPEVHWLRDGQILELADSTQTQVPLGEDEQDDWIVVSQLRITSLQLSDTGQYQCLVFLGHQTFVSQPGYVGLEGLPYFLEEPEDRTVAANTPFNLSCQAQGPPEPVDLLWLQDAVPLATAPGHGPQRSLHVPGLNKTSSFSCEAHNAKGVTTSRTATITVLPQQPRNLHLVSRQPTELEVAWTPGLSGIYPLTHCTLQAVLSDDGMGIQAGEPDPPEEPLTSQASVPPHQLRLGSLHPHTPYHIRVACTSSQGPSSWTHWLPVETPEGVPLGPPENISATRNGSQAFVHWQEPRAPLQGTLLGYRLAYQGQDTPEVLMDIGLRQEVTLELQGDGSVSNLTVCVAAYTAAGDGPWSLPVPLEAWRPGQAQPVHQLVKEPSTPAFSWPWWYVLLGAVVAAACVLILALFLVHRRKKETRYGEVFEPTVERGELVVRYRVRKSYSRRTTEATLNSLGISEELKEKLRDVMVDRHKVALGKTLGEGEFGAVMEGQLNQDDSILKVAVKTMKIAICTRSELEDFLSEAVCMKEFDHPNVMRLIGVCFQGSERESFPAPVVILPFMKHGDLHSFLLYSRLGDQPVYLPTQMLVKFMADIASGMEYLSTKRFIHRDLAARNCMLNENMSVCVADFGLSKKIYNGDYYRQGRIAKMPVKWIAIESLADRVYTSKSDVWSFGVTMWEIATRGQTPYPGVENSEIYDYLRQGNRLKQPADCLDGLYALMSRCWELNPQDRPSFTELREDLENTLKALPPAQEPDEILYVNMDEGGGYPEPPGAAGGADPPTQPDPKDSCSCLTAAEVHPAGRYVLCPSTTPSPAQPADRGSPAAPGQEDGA
Description: BaF3 viability assay, Axl-dependent cells. To be noted: read-out: Cellular Axl activity by Ba/F3 assay (IC50).
Description: as §1, §2

Where only a bound is given, the exact number is not on record here.

Turning to `CCCn1cc(OCCC(O)CO)c(C(=O)Nc2ccc(Oc3ccnc4cc(OC)c(OC)cc34)cn2)n1` (stereo not drawn) [Compound 15], the values for the GI50 on CSF1R (Ba/F3 cells), at Mer (Ba/F3 cells) and at Axl (Ba/F3 cells) were 1000 to 10000 nM, 1000 to 10000 nM and < 1000 nM, respectively.
On to `COc1cc2nccc(Oc3ccc(NC(=O)c4nn(CC(C)O)cc4OCC(F)(F)F)nc3)c2cc1OC` (stereo not drawn) [Compound 17], for which the GI50 at CSF1R (Ba/F3 cells), at Mer (Ba/F3 cells) and at Axl (Ba/F3 cells) was < 1000 nM each time.
Consider `COc1cc2nccc(Oc3ccc(NC(=O)c4nn(CCCO)cc4OCC(F)(F)F)nc3)c2cc1OC` [Compound 18], for which the GI50 on CSF1R (Ba/F3 cells), at Mer (Ba/F3 cells) and on Axl (Ba/F3 cells) was < 1000 nM each time.
As for `COc1cc2nccc(Oc3ccc(NC(=O)c4nn(C[C@@H](C)O)cc4OCC(F)(F)F)nc3)c2cc1OC` [Compound 29], the GI50 at CSF1R (Ba/F3 cells), at Mer (Ba/F3 cells) and on Axl (Ba/F3 cells) was < 1000 nM throughout.
For the compound `COc1cc2nccc(Oc3ccc(NC(=O)c4nn(C[C@H](C)O)cc4OCC(F)(F)F)nc3)c2cc1OC` [Compound 30], the GI50 at CSF1R (Ba/F3 cells), at Mer (Ba/F3 cells) and at Axl (Ba/F3 cells) was < 1000 nM each time.
Consider `CCCn1cc(OC(C)C)c(C(=O)Nc2ccc(Oc3ccnc4cc(OC)c(OC(F)(F)F)cc34)c(F)c2)n1` [Compound 35], for which the GI50 at CSF1R (Ba/F3 cells) was 1000 to 10000 nM; on Mer (Ba/F3 cells), ≥ 10000 nM; on Axl (Ba/F3 cells), ≥ 10000 nM.
